Some test systems named below: MOLT-4; SK-MEL-2; HL-60; HCT-116; HCT-15; SW-620; SK-MEL-5; 786-0; NCI-H226; A498; NCI-H460; OVCAR-8; CAKI-1; HT-29; RXF 393; ACHN; MDA-N; PC-3.
What all share (experiment): inhibition of tumour cell growth, NCI panel, 48 h

The text below walks through data of ChEMBL document CHEMBL1201862, “PubChem BioAssay data set” (2004).

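Method: 48-hour compound exposure of cells in 96-well plates, five concentrations, linear interpolation of endpoints. GI50: concentration for 50% inhibition of growth.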 The source made the active and inactive calls. Rule as the data show it: active = GI50 up to about 1.1 µM and inactive = higher.

`C=C1CC2CC[C@@]34C[C@@H]5O[C@@H]6C(O[C@H]7CC[C@H](CC(=O)OC8[C@@H](C)C9OC%10C[C@]%11(C[C@@H]%12O[C@@]%13(C[C@@H](C)[C@@H]%12O%11)C[C@H](C)[C@@H]%11OC%12CC(C(O)CO)OC%12C[C@@H]%11O%13)OC%10CC9O[C@H]8C[C@H]8O[C@@H](CC[C@@H]1O2)C[C@@H](C)C8=C)O[C@@H]7[C@@H]6O3)C5O4` (stereo not given in full): the GI50 with MOLT-4 is 0.00135 µM (active); in the test on SK-MEL-2, 0.00125 µM (active); in the test on HL-60 it was 0.000321 µM (active); in the test with HCT-116, 0.000582 µM (active); in the test on HCT-15, 0.000476 µM; with SW-620, 0.000485 µM (active). Also, the GI50 in the test on SK-MEL-5 is 0.000308 µM (active); in the test with 786-0 it was 0.00211 µM (active); in the test on NCI-H226, 0.00179 µM (active); with A498, 0.00197 µM (active); in the test on NCI-H460, 8.26e-05 µM (active); in the test with OVCAR-8, 0.00249 µM (active). Further, the GI50 is 0.000484 µM (active) in the test on CAKI-1, 0.000357 µM (active) with HT-29, 0.000685 µM (active) with RXF 393 and 0.0038 µM (active) in the test with ACHN.

As to `O=C1OC(=O)C2C1C1C(c3ccccc3)=C(c3ccccc3)C2(O)C2C(=O)OC(=O)C12` (stereo not given), the GI50 in the test with MOLT-4 was 32.5 µM (inactive); in the test with SK-MEL-2 it was > 100 µM (inactive); in the test on HL-60, > 10 µM (inactive); in the test with HCT-116, 54.8 µM (inactive); in the test with HCT-15, more than 100 µM; in the test on SW-620, 80.7 µM (inactive). The GI50 with 786-0 is 92.3 µM (inactive); with NCI-H226 it was > 100 µM (inactive); in the test on A498, > 100 µM (inactive); in the test with NCI-H460, > 100 µM (inactive); in the test with OVCAR-8, 63.8 µM (inactive); with CAKI-1, > 100 µM (inactive). Also, the GI50 in the test on HT-29 is 46.9 µM (inactive); in the test with ACHN, > 100 µM (inactive).

On to `CN(C)c1cccc(-c2cc(O)c3cc4c(cc3n2)OCO4)c1`, for which the GI50 with MOLT-4 is 0.3 µM (active); in the test with SK-MEL-2 it was 0.221 µM (active); in the test on HL-60 it was 0.112 µM (active); in the test with HCT-116 it was 0.138 µM (active); in the test with HCT-15 it was 0.285 µM; in the test on SW-620, 0.124 µM (active). Besides, the GI50 was 0.0776 µM (active) in the test with SK-MEL-5; 0.262 µM (active) in the test with 786-0; 0.315 µM (active) in the test with NCI-H226; 0.137 µM (active) with A498; 0.278 µM (active) in the test with NCI-H460; 0.363 µM (active) with OVCAR-8. For the same molecule, the GI50 with CAKI-1 was > 100 µM (inactive); in the test with HT-29 it was 0.202 µM (active); in the test on RXF 393 it was 0.241 µM (active); in the test with ACHN, 0.378 µM (active).

As for `CSc1nc(NC(C)C)c2c(n1)Sc1nc3ccccc3n1N=C2`, the GI50 in the test on MOLT-4 is 9.84 µM (inactive); in the test with SK-MEL-2, 17.9 µM (inactive); in the test on HL-60, > 100 µM (inactive); with HCT-116, 7.01 µM (inactive); in the test with HCT-15, 36.8 µM; in the test on SW-620, 13.1 µM (inactive). For the same molecule, the GI50 is 27 µM (inactive) in the test on MDA-N; 0.69 µM (active) with SK-MEL-5; 4.23 µM (inactive) with 786-0; 0.57 µM (active) with NCI-H226; 3.09 µM (inactive) with A498; 6.34 µM (inactive) with NCI-H460. Also, the GI50 is 4.92 µM (inactive) in the test with OVCAR-8; 19.5 µM (inactive) in the test with PC-3; 28.7 µM (inactive) with CAKI-1; 21 µM (inactive) in the test on HT-29; 5.83 µM (inactive) in the test with ACHN.

`O=C1c2ccccc2C(=O)c2c(O)c(O)cc(O)c21` [PURPURIN]: the GI50 in the test on MOLT-4 is 34 µM (inactive); in the test on SK-MEL-2, 21.2 µM (inactive); in the test on HL-60, 24 µM (inactive); in the test on HCT-116 it was 24.5 µM (inactive); in the test with HCT-15 it was 36.5 µM; in the test on SW-620 it was 40.1 µM (inactive). Moreover, the GI50 is 37.9 µM (inactive) in the test on SK-MEL-5; 25.8 µM (inactive) in the test with 786-0; 31 µM (inactive) with A498; 34.5 µM (inactive) in the test with NCI-H460; 55.5 µM (inactive) in the test on OVCAR-8; 44 µM (inactive) in the test with CAKI-1. Moreover, the values for the GI50 in the test on RXF 393 and in the test with ACHN were 21.7 µM (inactive) and 27.4 µM (inactive), respectively.

Regarding `COC(=O)C1CC(C=O)=C(SC)N1` (stereo not given), the GI50 with MOLT-4 was > 50 µM (inactive); in the test with SK-MEL-2, > 50 µM (inactive); in the test with HCT-116 it was > 50 µM (inactive); in the test with HCT-15, more than 50 µM; in the test on SW-620 it was > 50 µM (inactive); with MDA-N, > 50 µM (inactive). Further, the GI50 in the test on SK-MEL-5, with 786-0, in the test with A498, in the test on NCI-H460, with OVCAR-8 and in the test on PC-3 was > 50 µM (inactive) throughout. For the same molecule, the GI50 in the test on CAKI-1, in the test on HT-29, in the test on RXF 393 and in the test with ACHN was > 50 µM (inactive) in each case.

For the molecule `COc1ccc2c(CCNC(=O)/C=C/c3ccccc3)c(C(C)=O)[nH]c2c1[N+](=O)[O-]`, the GI50 was 5.69 µM (inactive) in the test on MOLT-4; 17.4 µM (inactive) in the test with SK-MEL-2; 4.31 µM (inactive) with HL-60; 13.7 µM (inactive) in the test on HCT-116; 6.89 µM in the test with HCT-15; 5.38 µM (inactive) with SW-620. Besides, the GI50 in the test with 786-0 was 20.3 µM (inactive); in the test on NCI-H226, 20.9 µM (inactive); in the test with A498 it was 17.3 µM (inactive); in the test on NCI-H460 it was 6.12 µM (inactive); with OVCAR-8, 17.9 µM (inactive); in the test on CAKI-1 it was 5.28 µM (inactive). For the same molecule, the GI50 with HT-29 is 4.99 µM (inactive); in the test with ACHN, 50.4 µM (inactive).

For `CC1=C(Cl)C[C@@H](/C(C)=C\Cl)O[C@@]1(O)C(Br)Br`, the GI50 is 15.6 µM (inactive) with MOLT-4; 28.4 µM (inactive) with SK-MEL-2; 6.92 µM (inactive) in the test with HL-60; 30.4 µM (inactive) in the test on HCT-116; 16.8 µM in the test with HCT-15; 37.3 µM (inactive) in the test with SW-620. Also, the GI50 with MDA-N was 19.2 µM (inactive); in the test with SK-MEL-5 it was 24.9 µM (inactive); in the test on 786-0, 33.7 µM (inactive); with A498, 31.1 µM (inactive); with NCI-H460, 41.1 µM (inactive); with OVCAR-8, 32.1 µM (inactive). Further, the GI50 with PC-3 was 60.5 µM (inactive); in the test on CAKI-1, 18.5 µM (inactive); in the test on HT-29 it was 32.1 µM (inactive); in the test with RXF 393, 19.2 µM (inactive); in the test on ACHN, 30.5 µM (inactive).

For `O=S1(=O)NN=C(NCc2ccc(Cl)cc2)c2ccccc21`, the GI50 is 22.8 µM (inactive) in the test on MOLT-4; > 100 µM (inactive) with SK-MEL-2; > 100 µM (inactive) in the test with HL-60; > 100 µM (inactive) with HCT-116; 67 µM with HCT-15; > 100 µM (inactive) in the test on SW-620. Also, the GI50 with SK-MEL-5 was > 100 µM (inactive); in the test on 786-0, 54.5 µM (inactive); in the test with NCI-H226, > 100 µM (inactive); in the test on A498, > 100 µM (inactive); in the test with NCI-H460 it was > 100 µM (inactive); in the test with OVCAR-8 it was > 100 µM (inactive). In addition, the GI50 was > 100 µM (inactive) with CAKI-1, > 100 µM (inactive) in the test on HT-29, 30.5 µM (inactive) in the test with RXF 393 and > 100 µM (inactive) in the test with ACHN.
